# Key:
# [1] = system: fasting Type II diabetic patients; assay: Subcutaneous administration to fasting Type II diabetic patients: plasma glucose; type: in vivo, human
# [2] = after stopping 5 hour infusion
# Text: (§1) At this point, the hormone infusion was abruptly stopped, and the glucose concentration was maintained constant until the biologic effects of the infused hormone were no longer detectable.
# [3] = system: peripheral glucose uptake; assay: Kinetics of activation and deactivation of effect on peripheral glucose uptake; type: in vivo, human
# Text: Marked differences between the two hormones were noted when biologic activity was studied.
# as §1
# [4] = system: hepatic glucose production; assay: Subcutaneous administration to Type II diabetic subjects: hepatic glucose production; type: in vivo, human; details: 0.2 U/kg s.c.
# [5] = five Type II subjects, 0.2 U/kg s.c.
# [6] = system: insulin-degrading proteases; details: subcutaneous injection site
# [7] = system: hepatic glucose output (HGO); assay: Kinetics of deactivation of effect on hepatic glucose output (HGO); type: in vivo, human
# Text: as §1
# [8] = after stopping 5 hour infusion (human insulin 0.55, human proinsulin 2.75 μg/M2/min)
substance,measurement,setting,value
"human proinsulin: human proinsulin, available by organic synthesis, isolation from human pancreas or recombinant DNA methodology",Plasma Glucose,"[1]; subject three, total dose 27.2 I.U. (0.2 U/kg s.c.), 120 min after injection",128 mg/dL
same,Plasma Glucose,"[1]; subject three, total dose 27.2 I.U. (0.2 U/kg s.c.), 200 min after injection",110 mg/dL
same,Plasma Glucose,"[1]; subject three, total dose 27.2 I.U. (0.2 U/kg s.c.), 240 min after injection",101 mg/dL
same,Plasma Glucose,"[1]; subject three, total dose 27.2 I.U. (0.2 U/kg s.c.), 280 min after injection",98 mg/dL
same,Plasma Glucose,"[1]; subject three, total dose 27.2 I.U. (0.2 U/kg s.c.), 300 min after injection",88 mg/dL
same,Plasma Glucose,"[1]; subject three, total dose 27.2 I.U. (0.2 U/kg s.c.), 360 min after injection",84 mg/dL
same,Plasma Glucose,"[1]; subject three, total dose 27.2 I.U. (0.2 U/kg s.c.), 400 min after injection",85 mg/dL
same,Plasma Glucose,"[1]; subject three, total dose 27.2 I.U. (0.2 U/kg s.c.), 440 min after injection",86 mg/dL
same,Plasma Glucose,"[1]; subject three, total dose 27.2 I.U. (0.2 U/kg s.c.), 480 min after injection",88 mg/dL
same,Plasma Glucose,"[1]; subject two, total dose 20.0 I.U. (0.2 U/kg s.c.), 0 min after injection",231 mg/dL
same,Plasma Glucose,"[1]; subject two, total dose 20.0 I.U. (0.2 U/kg s.c.), 40 min after injection",217 mg/dL
same,Plasma Glucose,"[1]; subject two, total dose 20.0 I.U. (0.2 U/kg s.c.), 80 min after injection",201 mg/dL
same,Plasma Glucose,"[1]; subject two, total dose 20.0 I.U. (0.2 U/kg s.c.), 120 min after injection",191 mg/dL
same,Plasma Glucose,"[1]; subject two, total dose 20.0 I.U. (0.2 U/kg s.c.), 160 min after injection",182 mg/dL
same,Plasma Glucose,"[1]; subject two, total dose 20.0 I.U. (0.2 U/kg s.c.), 240 min after injection",164 mg/dL
same,Plasma Glucose,"[1]; subject two, total dose 20.0 I.U. (0.2 U/kg s.c.), 280 min after injection",143 mg/dL
same,Plasma Glucose,"[1]; subject two, total dose 20.0 I.U. (0.2 U/kg s.c.), 300 min after injection",134 mg/dL
same,Plasma Glucose,"[1]; subject two, total dose 20.0 I.U. (0.2 U/kg s.c.), 360 min after injection",128 mg/dL
same,Plasma Glucose,"[1]; subject two, total dose 20.0 I.U. (0.2 U/kg s.c.), 400 min after injection",117 mg/dL
same,Plasma Glucose,"[1]; subject two, total dose 20.0 I.U. (0.2 U/kg s.c.), 440 min after injection",112 mg/dL
same,Plasma Glucose,"[1]; subject two, total dose 20.0 I.U. (0.2 U/kg s.c.), 480 min after injection",104 mg/dL
same,Plasma Glucose,"[1]; subject two, total dose 20.0 I.U. (0.2 U/kg s.c.), 500 min after injection",100 mg/dL
same,Plasma Glucose,"[1]; subject, total dose 15.0 I.U. (0.2 U/kg s.c.), 0 min after injection",332 mg/dL
same,Plasma Glucose,"[1]; subject, total dose 15.0 I.U. (0.2 U/kg s.c.), 40 min after injection",328 mg/dL
same,Plasma Glucose,"[1]; subject, total dose 15.0 I.U. (0.2 U/kg s.c.), 80 min after injection",308 mg/dL
same,Plasma Glucose,"[1]; subject, total dose 15.0 I.U. (0.2 U/kg s.c.), 120 min after injection",288 mg/dL
same,Plasma Glucose,"[1]; subject, total dose 15.0 I.U. (0.2 U/kg s.c.), 160 min after injection",272 mg/dL
same,Plasma Glucose,"[1]; subject, total dose 15.0 I.U. (0.2 U/kg s.c.), 200 min after injection",247 mg/dL
same,Plasma Glucose,"[1]; subject, total dose 15.0 I.U. (0.2 U/kg s.c.), 240 min after injection",210 mg/dL
same,Plasma Glucose,"[1]; subject, total dose 15.0 I.U. (0.2 U/kg s.c.), 280 min after injection",174 mg/dL
same,Plasma Glucose,"[1]; subject, total dose 15.0 I.U. (0.2 U/kg s.c.), 360 min after injection",94 mg/dL
same,Time by which hormone concentrations are below biologically effective values,[2],≤ 90 minutes
same,"Decay of biologic effect to stimulate glucose disposal, more slowly than human insulin",[3]; after stopping 5 hour infusion,2.2 times
same,t 1/2 of deactivation of effects on glucose disposal,[3]; [8],1.45 ± 0.233 h
same,Time needed to reach steady state biologic effects compared to human insulin,[3]; both stimulation of glucose disposal and inhibition of HGO,much slower
same,Time to steady state effect to stimulate glucose disposal,[3]; continuous infusion,5 h
same,Time until glucose disposal rates returned to basal,[3]; following cessation of 2.75 μg/M2/min infusion,160 min
same,Effect on elevated hepatic glucose production,[4],suppressed into the normal range
same,Time of maximum suppression of hepatic glucose production,[4],264 ± 31 min
same,Minimum hepatic glucose production,[4]; basal 3.83±0.6,1.21 ± 0.2 mg/kg/min
same,Mean peak hormone blood level,[5],6.8 pmol/mL
same,Time of mean peak hormone blood level,[5],230 ± 33 min
same,Degradation by insulin-degrading proteases,[6],not degraded
same,Time until a decline in effect to suppress HGO could be detected,[7]; after infusion stopped,120 min
same,"Time until HGO returned to baseline values, extrapolation of the curve",[7]; after stopping 5 hour infusion,> 6 h
same,t 1/2 of deactivation of effect to inhibit HGO,[7]; [8],3.83 ± 0.317 h

# Reference: patent US4652548A (Eli Lilly and Company, priority 1984, dated 1987)
